≈ marks a conversion by molar mass, not a printed value. Like-named read-outs stand apart in the source and are kept apart here.
Legend:
A. baumannii = experiment: microbe, parasite or virus in culture; details: Acinetobacter baumannii, mode of 6 replicates
How it was run: (§1)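 Broth microdilution in MHB, 2-fold 12-point series from 128 or 64 down to 0.06 or 0.03 μg mL^−1, 5 × 10^5 CFU mL^−1. Extra runs in CAMHB per CLSI and in MHB with 1% agarose; n ≥ 6.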

E. coli [1] = experiment: microbe, parasite or virus in culture; details: Escherichia coli
How it was run: as §1

K. pneumoniae = experiment: microbe, parasite or virus in culture; details: Klebsiella pneumoniae, mode of 6 replicates
How it was run: as §1

P. aeruginosa = experiment: microbe, parasite or virus in culture; details: Pseudomonas aeruginosa, mode of 6 replicates
How it was run: as §1

S. enterica Typhi = experiment: microbe, parasite or virus in culture; details: Salmonella enterica, ATCC14028 / TYPHI, read-out: BMD MIC
How it was run: as §1

[2] = system: A. baumannii clinical isolates; experiment: microbe, parasite or virus in culture
Procedure: (§2) The in vitro activity of AA139 and comparator antimicrobials was determined in two panels of clinical isolates of E. coli, K. pneumoniae, P. aeruginosa, and A. baumannii (Supplementary Table 3), and MIC90 presented. The US panel consisted of 331 clinical isolates from 2010 to 2012. It was tested by BMD in accordance with the CLSI guidelines (M07-A9, 2012)[39]. […] AA139 was diluted in 0.01% acetic acid/0.1% bovine serum albumin. Sterile polypropylene culture cluster round-bottom 96-well plates (Costar # 3879) were used for testing. The worldwide panel consisted of 445 clinical isolates from 2011 to 2013, geographically divided into Asia, Europe, North America, and Rest of World (Middle East, Latin America, Africa, and South Pacific) with each region representing ~25% of the isolates. It was tested by broth microdilution in accordance with the CLSI guidelines (M07-A9, 2012)[39]. […] The test media was CAMHB (Becton Dickinson). AA139 and polymyxin B were tested in media supplemented with 0.002% Tween 80 (Calbiochem). MIC90 values were calculated for all or subsets of the isolates. MIC correlation between AA139 and colistin was analyzed with data from the US panel.

[3] = system: E. coli clinical isolates; experiment: microbe, parasite or virus in culture
Procedure: as §2

[4] = system: K. pneumoniae clinical isolates; experiment: microbe, parasite or virus in culture
Procedure: as §2

[5] = system: P. aeruginosa clinical isolates; experiment: microbe, parasite or virus in culture
Procedure: as §2

E. coli [6] = system: E. coli; design: method as in Hasman H, et al. Euro. Surveill. (2015) 20:49; details: E. coli ESBL20150072, mcr-1 pos; ESBL; CAMHB; comparator antibiotics; ref Hasman H, et al. Euro. Surveill. (2015) 20:49; cited from earlier work
[7] = system: human primary hepatocytes; experiment: Cell viability, human primary hepatocytes (Eurofins Panlabs); assay type: cell-based; details: Homo sapiens, Hepatocyte; plateable cryopreserved hepatocytes, alamarBlue, 24 h 37 °C, fluorimetry; 8-point 0.1–300 μM
Procedure: Cell viability of human primary hepatocytes against AA139 was assessed by fluorometric readout of Alamar Blue following 24 h incubation at 37 °C of human plateable cryopreserved hepatocytes and AA139 as an 8-point dose response, 0.1–300 μM, as described by Nociari et al.[41]. Cell viability was calculated as a percentage of the control cells and plotted versus concentration using Prism 8 Software. The IC50 value was determined by non-linear regression analysis of the concentration–response curve using the Hill equation. Assay was performed by Eurofins Pharma Discovery Services (Panlabs), St Charles, MO, USA, study number 100049990. Source data are provided as a source data file.

[8] = ATCC19636, read-out: BMD MIC, A. baumannii ATCC 19636 type strain, CAMHB
[9] = read-out: BMD MIC, A. baumannii Greece CI, XDR, PmxR, MHB
[10] = ATCC25922, read-out: BMD MIC, E. coli ATCC 25922 FDA control strain, CAMHB, mode of 6 replicates
[11] = ATCC700926 / MG1655, read-out: BMD MIC
[12] = ATCC700928, read-out: BMD MIC, E. coli ATCC 700928 CFT073 UPEC, CAMHB, mode of 6 replicates
[13] = ATCC13883, read-out: BMD MIC, K. pneumoniae ATCC 13883 type strain (polymyxin/colistin heteroresistant), MHB
[14] = ATCC700603, read-out: BMD MIC, K. pneumoniae ATCC 700603 (K6), MDR, OXA-2/SHV-18, CAMHB
[15] = BAA2146, read-out: BMD MIC, K. pneumoniae BAA-2146, MDR, ESBL, NDM-1 pos, MHB
[16] = read-out: BMD MIC, K. pneumoniae Greece CI 8_GR_13, XDR, KPC-2, PmxR, MHB
[17] = ATCC27853, read-out: BMD MIC, P. aeruginosa ATCC 27853 control strain, CAMHB
[18] = read-out: BMD MIC, P. aeruginosa FADDI-070, MDR, PmxR, MHB/CAMHB
[19] = Worldwide isolates 2011-2013, A. baumannii n = 108
[20] = Worldwide isolates 2011-2013, E. coli n = 112
[21] = Worldwide isolates 2011-2013, K. pneumoniae n = 114
[22] = Worldwide isolates 2011-2013, P. aeruginosa n = 111

## CC(C)(O/N=C(\C(=O)N[C@@H]1C(=O)N2C(C(=O)[O-])=C(C[n+]3ccccc3)CS[C@H]12)c1csc(N)n1)C(=O)O [Ceftazidime, ceftazidime, reference compound]
A. baumannii; [8]
  MIC: 16 µg/mL (≈ 29.3 µM)
A. baumannii; [9]
  MIC: > 64 µg/mL
E. coli [1]; [10]
  MIC: 1 µg/mL (≈ 1.83 µM)
E. coli [1]; [11]
  MIC: ≤ 0.5 µg/mL
E. coli [1]; [12]
  MIC: ≤ 0.25 µg/mL
E. coli [1]; read-out: BMD MIC
  MIC: 16 µg/mL (≈ 29.3 µM)
K. pneumoniae; [13]
  MIC: 1 µg/mL (≈ 1.83 µM)
K. pneumoniae; [14]
  MIC: > 64 µg/mL
K. pneumoniae; [15]
  MIC: > 64 µg/mL
K. pneumoniae; [16]
  MIC: > 64 µg/mL
P. aeruginosa; [17]
  MIC: 8 µg/mL (≈ 14.6 µM)
P. aeruginosa; [18]
  MIC: > 64 µg/mL
S. enterica Typhi
  MIC: ≤ 0.5 µg/mL
[2]; Acinetobacter baumannii
  MIC90: > 32 µg/mL
[2]; US isolates 2010–2012, A. baumannii MDR, n = 19
  MIC90: >32 µg/mL
[2]; US isolates 2010–2012, A. baumannii XDR, n = 31
  MIC90: >32 µg/mL
[2]; [19]
  MIC50: > 32 µg/mL
  MIC90: > 32 µg/mL
[3]; Escherichia coli
  MIC90: 32 µg/mL (≈ 58.5 µM)
[3]; Escherichia coli, US isolates 2010–2012, E. coli MDR, n = 31
  MIC90: > 32 µg/mL
[3]; Escherichia coli, US isolates 2010–2012, E. coli Non-MDR, n = 24
  MIC90: 2 µg/mL (≈ 3.66 µM)
[3]; [20]
  MIC50: 0.25 µg/mL (≈ 0.457 µM)
  MIC90: 32 µg/mL (≈ 58.5 µM)
[4]; Klebsiella pneumoniae, US isolates 2010–2012, K. pneumoniae Non-MDR, n = 24
  MIC90: 1 µg/mL (≈ 1.83 µM)
[4]; Klebsiella pneumoniae, US isolates 2010–2012, K. pneumoniae XDR, n = 55
  MIC90: > 32 µg/mL
[4]; [21]
  MIC50: 1 µg/mL (≈ 1.83 µM)
  MIC90: > 32 µg/mL
[5]; Pseudomonas aeruginosa, US isolates 2010–2012, P. aeruginosa Non-MDR, n = 41
  MIC90: 32 µg/mL (≈ 58.5 µM)
[5]; Pseudomonas aeruginosa, US isolates 2010–2012, P. aeruginosa XDR, n = 37
  MIC90: > 32 µg/mL
[5]; [22]
  MIC50: 4 µg/mL (≈ 7.32 µM)
  MIC90: > 32 µg/mL
E. coli [6]
  BMD MIC: >16 µg/mL

## CN(C)CCCN1c2ccccc2Sc2ccc(Cl)cc21 [Chlorpromazine, reference compound]
[7]
  IC50: 35 µM

## CO/N=C(\C(=O)N[C@@H]1C(=O)N2C(C(=O)[O-])=C(C[N+]3(C)CCCC3)CS[C@H]12)c1csc(N)n1 [Cefepime, reference compound]
A. baumannii; [8]
  MIC: 8 µg/mL (≈ 16.6 µM)
A. baumannii; [9]
  MIC: > 64 µg/mL
E. coli [1]; [10]
  MIC: ≤ 0.5 µg/mL
E. coli [1]; [11]
  MIC: ≤ 0.5 µg/mL
E. coli [1]; [12]
  MIC: ≤ 0.5 µg/mL
E. coli [1]; read-out: BMD MIC
  MIC: 8 µg/mL (≈ 16.6 µM)
K. pneumoniae; [13]
  MIC: 1 µg/mL (≈ 2.08 µM)
K. pneumoniae; [14]
  MIC: 0.5 µg/mL (≈ 1.04 µM)
K. pneumoniae; [15]
  MIC: > 64 µg/mL
K. pneumoniae; [16]
  MIC: > 64 µg/mL
P. aeruginosa; [17]
  MIC: ≤ 0.5 µg/mL
P. aeruginosa; [18]
  MIC: > 64 µg/mL
S. enterica Typhi
  MIC: ≤ 0.5 µg/mL
E. coli [6]
  BMD MIC: >2 µg/mL
